Legend:
Type in all cases: in vivo
[1] = test system: barnyardgrass (Echinochloa crus-galli); assay: Test A preemergence soil spray, visual injury rating 0-100; conditions: 10 days, 0 = no effect, 100 = complete control
Method in brief: (§1)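 Seeds sown in loam-sand blend got a preemergence directed soil spray, or emerged plants (2-10 cm, one- to two-leaf) got a postemergence spray, of compound in non-phytotoxic solvent with surfactant. After 10 days in greenhouse, injury rated visually versus untreated controls on a 0 (no effect) to 100 (complete control) scale.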

[2] = test system: blackgrass (Alopecurus myosuroides); assay: as above; conditions: 10 days, 0 = no effect, 100 = complete control
Method in brief: as §1

corn (Zea mays) [3] = assay: as above; conditions: 10 days, 0 = no effect, 100 = complete control
Method in brief: as §1

[4] = test system: green foxtail (Setaria viridis); assay: as above; conditions: 10 days, 0 = no effect, 100 = complete control
Method in brief: as §1

kochia (Bassia scoparia) [5] = assay: as above; conditions: 10 days, 0 = no effect, 100 = complete control
Method in brief: as §1

[6] = test system: oat, wild (wild oat, Avena fatua); assay: as above; conditions: 10 days, 0 = no effect, 100 = complete control
Method in brief: as §1

[7] = test system: palmer (palmer amaranth, palmer pigweed, Amaranthus palmeri); assay: as above; conditions: 10 days, 0 = no effect, 100 = complete control
Method in brief: as §1

[8] = test system: ragweed (common ragweed, Ambrosia artemisiifolia); assay: as above; conditions: 10 days, 0 = no effect, 100 = complete control
Method in brief: as §1

[9] = test system: ryegrass, Italian (italian ryegrass, Lolium multiflorum); assay: as above; conditions: 10 days, 0 = no effect, 100 = complete control
Method in brief: as §1

soybean (Glycine max) [10] = assay: as above; conditions: 10 days, 0 = no effect, 100 = complete control
Method in brief: as §1

[11] = test system: wheat (Triticum aestivum); assay: as above; conditions: 10 days, 0 = no effect, 100 = complete control
Method in brief: as §1

[12] = test system: barnyardgrass (Echinochloa crus-galli); assay: Test A postemergence application, visual injury rating 0-100; conditions: 10 days
Method in brief: as §1

[13] = test system: blackgrass (Alopecurus myosuroides); assay: as above; conditions: 10 days
Method in brief: as §1

corn (Zea mays) [14] = assay: as above; conditions: 10 days
Method in brief: as §1

[15] = test system: galium (catchweed bedstraw, Galium aparine); assay: as above; conditions: 10 days
Method in brief: as §1

[16] = test system: green foxtail (Setaria viridis); assay: as above; conditions: 10 days
Method in brief: as §1

[17] = test system: horseweed (Erigeron canadensis); assay: as above; conditions: 10 days
Method in brief: as §1

kochia (Bassia scoparia) [18] = assay: as above; conditions: 10 days
Method in brief: as §1

[19] = test system: oat, wild (wild oat, Avena fatua); assay: as above; conditions: 10 days
Method in brief: as §1

[20] = test system: palmer (palmer amaranth, palmer pigweed, Amaranthus palmeri); assay: as above; conditions: 10 days
Method in brief: as §1

[21] = test system: ragweed (common ragweed, Ambrosia artemisiifolia); assay: as above; conditions: 10 days
Method in brief: as §1

[22] = test system: ryegrass, Italian (italian ryegrass, Lolium multiflorum); assay: as above; conditions: 10 days
Method in brief: as §1

soybean (Glycine max) [23] = assay: as above; conditions: 10 days
Method in brief: as §1

[24] = test system: wheat (Triticum aestivum); assay: as above; conditions: 10 days
Method in brief: as §1

[25] = test system: barnyardgrass (Echinochloa crusgalli); assay: Test B flooded paddy test, visual plant response rating 0-100; conditions: 250 g ai/ha, Flood, applied to paddy water, evaluated after 13 days
Method in brief: (§2)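 In this flooded assay, 2-leaf seedlings received compound through the water layer, kept at 3 cm over the soil. Plants were held 13 days in a greenhouse and then visually compared with control pots.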

[26] = test system: ducksalad (Heteranthera limosa); assay: as above; conditions: 250 g ai/ha, Flood, applied to paddy water, evaluated after 13 days
Method in brief: as §2

rice (Oryza sativa) = assay: as above; conditions: 250 g ai/ha, Flood, applied to paddy water, evaluated after 13 days
Method in brief: as §2

[27] = test system: sedge, umbrella (small-flower umbrella sedge, Cyperus difformis); assay: as above; conditions: 250 g ai/ha, Flood, applied to paddy water, evaluated after 13 days
Method in brief: as §2

[28] = 31 g ai/ha, postemergence, 0 = no effect, 100 = complete control
[29] = Postemergence, 125 g ai/ha, 0 is no effect, 100 is complete control

Q: How did the “Barnyardgrass plant response rating (0-100)” value ([1]; 31 g ai/ha) turn out when `CCOC(=O)COC(=O)C1C=CC(NC(=O)C2(C)CN(c3cc(F)cc(F)c3)C(=O)O2)C1` (stereo not shown) [Compound 53] was run?
A: 30

Q: What about the “Barnyardgrass plant response rating (0 to 100 scale)” value ([1]; 125 g ai/ha) of the same molecule?
A: 100

Q: And the “Blackgrass plant response rating (0-100)” value ([2]; 31 g ai/ha)?
A: 50

Q: And the “Blackgrass plant response rating (0 to 100 scale)” value ([2]; 125 g ai/ha)?
A: 90

Q: And the “Corn plant response rating (0-100)” value (corn (Zea mays) [3]; 31 g ai/ha)?
A: 0

Q: And the “Corn plant response rating (0 to 100 scale)” value (corn (Zea mays) [3]; 125 g ai/ha)?
A: 60

Q: What about the “Foxtail, Green plant response rating (0-100)” value ([4]; 31 g ai/ha) of the same molecule?
A: 0

Q: And the “Foxtail, Green plant response rating (0 to 100 scale)” value ([4]; 125 g ai/ha)?
A: 20

Q: What about the “Kochia plant response rating (0-100)” value (kochia (Bassia scoparia) [5]; 31 g ai/ha) of the same molecule?
A: 0

Q: What about the “Kochia plant response rating (0 to 100 scale)” value (kochia (Bassia scoparia) [5]; 125 g ai/ha) of the same molecule?
A: 90

Q: What about the “Oat, Wild plant response rating (0-100)” value ([6]; 31 g ai/ha) of the same molecule?
A: 50

Q: And the “Oat, Wild plant response rating (0 to 100 scale)” value ([6]; 125 g ai/ha)?
A: 90

Q: And the “Amaranth, Palmer plant response rating (0-100)” value ([7]; 31 g ai/ha)?
A: 30

Q: And the “Amaranth, Palmer plant response rating (0 to 100 scale)” value ([7]; 125 g ai/ha)?
A: 60

Q: What about the “Ragweed plant response rating (0-100)” value ([8]; 31 g ai/ha) of the same molecule?
A: 0

Q: What about the “Ragweed plant response rating (0 to 100 scale)” value ([8]; 125 g ai/ha) of the same molecule?
A: 20

Q: What about the “Ryegrass, Italian plant response rating (0-100)” value ([9]; 31 g ai/ha) of the same molecule?
A: 70

Q: And the “Ryegrass, Italian plant response rating (0 to 100 scale)” value ([9]; 125 g ai/ha)?
A: 100

Q: What about the “Soybean plant response rating (0-100)” value (soybean (Glycine max) [10]; 31 g ai/ha) of the same molecule?
A: 30

Q: What about the “Soybean plant response rating (0 to 100 scale)” value (soybean (Glycine max) [10]; 125 g ai/ha) of the same molecule?
A: 70

Q: And the “Wheat plant response rating (0-100)” value ([11]; 31 g ai/ha)?
A: 70

Q: What about the “Wheat plant response rating (0 to 100 scale)” value ([11]; 125 g ai/ha) of the same molecule?
A: 90

Q: And the “Barnyardgrass plant response rating (0-100)” value [12, 28]?
A: 100

Q: And the “Barnyardgrass plant response rating (0 to 100 scale)” value [12, 29]?
A: 100

Q: What about the “Blackgrass plant response rating (0-100)” value [13, 28] of the same molecule?
A: 70

Q: What about the “Blackgrass plant response rating (0 to 100 scale)” value [13, 29] of the same molecule?
A: 80

Q: And the “Corn plant response rating (0-100)” value (corn (Zea mays) [14]; [28])?
A: 100

Q: What about the “Corn plant response rating (0 to 100 scale)” value (corn (Zea mays) [14]; [29]) of the same molecule?
A: 100

Q: What about the “Galium plant response rating (0-100)” value [15, 28] of the same molecule?
A: 80

Q: What about the “Galium plant response rating (0 to 100 scale)” value [15, 29] of the same molecule?
A: 80

Q: What about the “Foxtail, Green plant response rating (0-100)” value [16, 28] of the same molecule?
A: 50

Q: What about the “Foxtail, Green plant response rating (0 to 100 scale)” value [16, 29] of the same molecule?
A: 70

Q: And the “Horseweed plant response rating (0-100)” value [17, 28]?
A: 60

Q: What about the “Horseweed plant response rating (0 to 100 scale)” value [17, 29] of the same molecule?
A: 70

Q: What about the “Kochia plant response rating (0-100)” value (kochia (Bassia scoparia) [18]; [28]) of the same molecule?
A: 80

Q: And the “Kochia plant response rating (0 to 100 scale)” value (kochia (Bassia scoparia) [18]; [29])?
A: 80

Q: And the “Oat, Wild plant response rating (0-100)” value [19, 28]?
A: 90

Q: And the “Oat, Wild plant response rating (0 to 100 scale)” value [19, 29]?
A: 90

Q: And the “Amaranth, Palmer plant response rating (0-100)” value [20, 28]?
A: 70

Q: What about the “Amaranth, Palmer / Pigweed, Palmer plant response rating (0 to 100 scale)” value [20, 29] of the same molecule?
A: 90

Q: And the “Ragweed plant response rating (0-100)” value [21, 28]?
A: 50

Q: And the “Ragweed plant response rating (0 to 100 scale)” value [21, 29]?
A: 80

Q: What about the “Ryegrass, Italian plant response rating (0-100)” value [22, 28] of the same molecule?
A: 90

Q: What about the “Ryegrass, Italian plant response rating (0 to 100 scale)” value [22, 29] of the same molecule?
A: 90

Q: And the “Soybean plant response rating (0-100)” value (soybean (Glycine max) [23]; [28])?
A: 70

Q: What about the “Soybean plant response rating (0 to 100 scale)” value (soybean (Glycine max) [23]; [29]) of the same molecule?
A: 70

Q: What about the “Wheat plant response rating (0-100)” value [24, 28] of the same molecule?
A: 90

Q: What about the “Wheat plant response rating (0 to 100 scale)” value [24, 29] of the same molecule?
A: 90

Q: And the “Plant response rating, Barnyardgrass (0 to 100 scale, 0 is no effect and 100 is complete control)” value [25]?
A: 90

Q: And the “Plant response rating, Ducksalad (0 to 100 scale, 0 is no effect and 100 is complete control)” value [26]?
A: 90

Q: And the “Plant response rating, Rice (0 to 100 scale, 0 is no effect and 100 is complete control)” value (rice (Oryza sativa))?
A: 20

Q: What about the “Plant response rating, Sedge, Umbrella (0 to 100 scale, 0 is no effect and 100 is complete control)” value [27] of the same molecule?
A: 60
